Among the data in ChEMBL document CHEMBL1149203, “Design, synthesis, and characterization of an ATP-peptide conjugate inhibitor of protein kinase A” (Bioorg Med Chem Lett, 2004) are Ki values, retold here.

The target in this experiment is cAMP-dependent protein kinase (PKA) (Homo sapiens, UniProt P22694+P17612+P22612). Put plainly: Inhibition of protein kinase A expressed in Escherichia coli.

Usually Ki stands for the equilibrium dissociation constant of an inhibitor or competing ligand from its target.

`CC(=O)N[C@@H](CC(C)C)C(=O)N[C@@H](CCCN=C(N)N)C(=O)N[C@@H](CCCN=C(N)N)C(=O)N[C@@H](C)C(=O)NC(CNC(=O)CSP(=O)(O)OP(=O)(O)OP(=O)(O)OC[C@H]1O[C@@H](n2cnc3c(N)ncnc32)[C@H](O)[C@@H]1O)C(=O)N[C@@H](CC(C)C)C(=O)NCC(=O)O` (stereo partly specified) had a Ki of 3.8 µM.
